The record followed here is ChEMBL document CHEMBL1629551, “Evaluation of the antimicrobial, antioxidant, and anti-inflammatory activities of hydroxychavicol for its potential use as an oral care agent” (Antimicrob Agents Chemother, 2009).

Molecules are shown by their SMILES. Values after ≈ are worked out from the molar mass of the structure shown. Active and inactive are the calls of the source. The rule behind the calls is not given here.

Data set [1] can be described thus: Cytotoxicity against human neutrophils at 2.5 to 10 ug/ml after 3 hrs by MTT assay. The conditions noted are these: neutrophil. The class given is cell-based. For orientation: Tetrazolium dyes change colour on reduction, which living cells bring about.
For data set [2], the system named is Neutrophil. In words: Antiinflammatory activity against human neutrophils assessed as inhibition of LPS-stimulated TNFalpha production at 10 ug/ml after 3 hrs by FACS analysis. On the technique in general: Flow cytometry measures light scatter and fluorescence of single cells or particles in a stream.
Data set [3] is filed under the species Homo sapiens. In words: Toxicity in healthy human assessed as occurrence of after taste. The data set is classed as organism-based. The note with it: in vivo.
In data set [4] the test system is Actinomyces viscosus. The data set is described as follows: Antimicrobial activity against Actinomyces viscosus ATCC 15987 assessed as eradication of preformed biofilm after 24 hrs by crystal violet staining. The class given is functional, organism-based. The note with it: ATCC 15987, 24 h.
For data set [5], the system named is Streptococcus mutans. The data set is described as follows: Antimicrobial activity against Streptococcus mutans ATCC 25175 at 125 to 500 ug/ml by time kill analysis. The data set is classed as functional, organism-based. The note with it: TDE = time-dependent effect.
The species named for data set [6] is Homo sapiens. The data set is described as follows: Toxicity in healthy human assessed as occurrence of tingling sensation. The data set is classed as organism-based. The note with it: in vivo.
The test system of data set [7] is Streptococcus mutans. The data set is described as follows: Antimicrobial activity against Streptococcus mutans ATCC 25175 assessed as increase in membrane permeability at 1000 ug/ml after 30 mins by propidium iodide staining-based flow cytometry. The class given is functional, organism-based.
Data set [8] has as its system Actinomyces viscosus. In words: Antimicrobial activity against Actinomyces viscosus ATCC 15987 assessed as increase in membrane permeability at 1000 ug/ml after 30 mins by propidium iodide staining-based flow cytometry. The class given is functional, organism-based.
The test system of data set [9] is Streptococcus sanguinis. In words: Antimicrobial activity against Streptococcus sanguis ATCC 10556 by turbidimetric analysis. The data set is classed as functional.
In data set [10] the test system is Prevotella intermedia. In words: Bactericidal activity against Prevotella intermedia ATCC 25611 after 24 hrs by turbidimetric analysis. The class given is functional. The note with it: ATCC 25611, 24 h.
The subject of data set [11] is Neutrophil. The data set is described as follows: Antiinflammatory activity against human neutrophils assessed as inhibition of LPS-stimulated TNFalpha production at 10 ug/ml after 3 hrs by FACS analysis. The class given is functional, cell-based.
Data set [12] concerns Enterococcus faecium. In words: Bactericidal activity against Enterococcus faecium ATCC 8042 after 24 hrs by turbidimetric analysis. The class given is functional. The note with it: ATCC 8042, 24 h.
Data set [13] deals with Enterococcus faecalis. The data set is described as follows: Antimicrobial activity against Enterococcus faecalis ATCC 29212 by turbidimetric analysis. The class given is functional.
Data set [14] deals with Enterococcus faecium. In words: Antimicrobial activity against Enterococcus faecium ATCC 8042 by turbidimetric analysis. The data set is classed as functional.
Data set [15] relates to Streptococcus mutans. The data set is described as follows: Bactericidal activity against Streptococcus mutans ATCC 25175 after 24 hrs by turbidimetric analysis. The data set is classed as functional. The conditions noted are these: ATCC 25175, 24 h.
Data set [16] concerns Streptococcus mutans. The data set is described as follows: Antimicrobial activity against Streptococcus mutans ATCC 25175 by turbidimetric analysis. The data set is classed as functional.
Data set [17] has as its system Streptococcus mutans. The data set is described as follows: Antimicrobial activity against Streptococcus mutans ATCC 25175 assessed as log reduction in bacterial growth at 250 ug/ml measured at 10 hrs by time kill analysis. The data set is classed as functional.
The test system of data set [18] is Streptococcus mutans. In words: Antimicrobial activity against Streptococcus mutans ATCC 25175 after 12 hrs by time kill analysis. The class given is functional, organism-based.
The test system of data set [19] is Neutrophil. The data set is described as follows: Antiinflammatory activity against human neutrophils assessed as inhibition of LPS-stimulated TNFalpha production at 2.5 ug/ml after 3 hrs by FACS analysis. The class given is functional, cell-based.
For data set [20], the system named is Actinomyces viscosus. In words: Antimicrobial activity against Actinomyces viscosus ATCC 15987 by turbidimetric analysis. The class given is functional.
Data set [21] has as its system Streptococcus mutans. The data set is described as follows: Antimicrobial activity against adherent cells of Streptococcus mutans ATCC 25175 at 1000 ug/ml. The data set is classed as functional, organism-based.
In data set [22] the test system is Prevotella intermedia. The data set is described as follows: Antimicrobial activity against Prevotella intermedia ATCC 25611 by turbidimetric analysis. The class given is functional.
Data set [23] has as its system Porphyromonas gingivalis. The data set is described as follows: Antimicrobial activity against Porphyromonas gingivalis ATCC 33277 by turbidimetric analysis. The class given is functional.
Data set [24] deals with Actinomyces viscosus. The data set is described as follows: Antimicrobial activity against Actinomyces viscosus ATCC 15987 assessed as inhibition of biofilm formation after 24 hrs by crystal violet staining. The class given is functional, organism-based. The note with it: ATCC 15987, 24 h.
In data set [25] the test system is Actinomyces viscosus. In words: Antimicrobial activity against Actinomyces viscosus ATCC 15987 assessed as post antibiotic effect at 250 ug/ml. The data set is classed as functional.
Data set [26] relates to Streptococcus sanguinis. In words: Bactericidal activity against Streptococcus sanguis ATCC 10556 after 24 hrs by turbidimetric analysis. The class given is functional. The conditions noted are these: ATCC 10556, 24 h.
The subject of data set [27] is Actinomyces viscosus. The data set is described as follows: Antimicrobial activity against Actinomyces viscosus ATCC 15987 assessed as post antibiotic effect at 2 times MIC. The data set is classed as functional.
Data set [28] relates to Actinomyces viscosus. In words: Bactericidal activity against Actinomyces viscosus ATCC 15987 after 24 hrs by turbidimetric analysis. The data set is classed as functional. The conditions noted are these: ATCC 15987, 24 h.
For data set [29], the system named is Porphyromonas gingivalis. The data set is described as follows: Bactericidal activity against Porphyromonas gingivalis ATCC 33277 after 24 hrs by turbidimetric analysis. The class given is functional. The note with it: ATCC 33277, 24 h.
In data set [30] the test system is Aggregatibacter actinomycetemcomitans. In words: Antimicrobial activity against Haemophilus actinomycetemcomitans ATCC 29522 by turbidimetric analysis. The class given is functional.
Data set [31] deals with Neutrophil. The data set is described as follows: Antiinflammatory activity against human neutrophils assessed as inhibition of LPS-stimulated TNFalpha production at 5 ug/ml after 3 hrs by FACS analysis. The class given is functional, cell-based.
In data set [32] the test system is Streptococcus mutans. In words: Antimicrobial activity against Streptococcus mutans ATCC 25175 assessed as inhibition of biofilm formation after 24 hrs by crystal violet staining. The data set is classed as functional, organism-based. The conditions noted are these: ATCC 25175, 24 h.
A further data set deals with Liver microsomes. The data set is described as follows: Antioxidant activity in rat liver microsomes assessed as reduction in lipid peroxidation at 10 to 100 ug/ml by thiobarbituric acid assay. The conditions noted are these: Microsome. The class given is functional. For orientation: Liver microsomes are vesicles of endoplasmic reticulum, rich in cytochrome P450 enzymes.

Data set [33] concerns Fusobacterium nucleatum. In words: Antimicrobial activity against Fusobacterium nucleatum ATCC 10953 by turbidimetric analysis. The class given is functional.
Data set [34] relates to Streptococcus mutans. The data set is described as follows: Antimicrobial activity against Streptococcus mutans ATCC 25175 assessed as post antibiotic effect at 2 times MIC. The class given is functional.
For data set [35], the system named is Streptococcus mutans. In words: Antimicrobial activity against Streptococcus mutans ATCC 25175 assessed as post antibiotic effect at 250 ug/ml. The data set is classed as functional.
Data set [36] relates to Fusobacterium nucleatum. The data set is described as follows: Bactericidal activity against Fusobacterium nucleatum ATCC 10953 after 24 hrs by turbidimetric analysis. The data set is classed as functional. The note with it: ATCC 10953, 24 h.
The test system of data set [37] is Enterococcus faecalis. The data set is described as follows: Bactericidal activity against Enterococcus faecalis ATCC 29212 after 24 hrs by turbidimetric analysis. The data set is classed as functional. The conditions noted are these: ATCC 29212, 24 h.
Data set [38] relates to Aggregatibacter actinomycetemcomitans. In words: Bactericidal activity against Haemophilus actinomycetemcomitans ATCC 29522 after 24 hrs by turbidimetric analysis. The data set is classed as functional. The conditions noted are these: ATCC 29522, 24 h.
Data set [39] deals with Streptococcus mutans. In words: Antimicrobial activity against Streptococcus mutans ATCC 25175 assessed as eradication of preformed biofilm after 24 hrs by crystal violet staining. The class given is functional, organism-based. The note with it: ATCC 25175, 24 h.
Data set [40] has as its system Streptococcus mutans. The note with it: ATCC 25175, 1000 ug/ml.
Description: Antimicrobial activity against adherent cells of Streptococcus mutans ATCC 25175 assessed as inhibition of water-insoluble glucan synthesis at 1000 ug/ml in presence of sucrose

Take `Cc1ccc(C(C)C)c(O)c1` [THYMOL]: in data set [1], the Activity result is “Non-toxic”.

Regarding `COc1ccc(C2CNC(=O)C2)cc1OC1CCCC1` (configuration not stated), the inhibition (as a rule, the percentage by which the read-out fell short of the control) in the data set on Neutrophil [2] is “Active”.

In the case of `C=CCc1ccc(O)c(O)c1` [HYDROXYCHAVICOL], the Activity entry in the data set filed under Homo sapiens [3] is “Non-toxic”; with Streptococcus mutans [5] it was “tde”; in the data set listed under Homo sapiens [6], “Non-toxic”; in data set [1] it was “Non-toxic”; in the data set on Streptococcus mutans [18] it was “Dose-dependent effect”. Besides, the IC50 (in general, the concentration at which inhibition is half-maximal) worked out at 1000 µg/mL (≈ 6660 µM) in the data set with Actinomyces viscosus [4], 500 µg/mL (≈ 3330 µM) in the data set on Actinomyces viscosus [24], 500 µg/mL (≈ 3330 µM) in the data set with Streptococcus mutans [32] and 500 µg/mL (≈ 3330 µM) in the data set with Streptococcus mutans [39]. In addition, the result with Streptococcus mutans [7], in the data set with Actinomyces viscosus [8] and in the data set on Streptococcus mutans [21] was Active. For the same molecule, the MIC against Streptococcus sanguinis [9] was found to be 125 µg/mL (≈ 832 µM); in the data set on Enterococcus faecalis [13], 250 µg/mL (≈ 1660 µM); in the data set with Enterococcus faecium [14], 250 µg/mL (≈ 1660 µM); in the data set with Streptococcus mutans [16], 250 µg/mL (≈ 1660 µM); against Actinomyces viscosus [20], 250 µg/mL (≈ 1660 µM); in the data set on Prevotella intermedia [22] it was 125 µg/mL (≈ 832 µM). Moreover, the MIC was determined as 62.5 µg/mL (≈ 416 µM) in the data set on Porphyromonas gingivalis [23], 250 µg/mL (≈ 1660 µM) in [30] and 125 µg/mL (≈ 832 µM) with Fusobacterium nucleatum [33]. Further, the MBC in the data set with Prevotella intermedia [10] amounted to 125 µg/mL (≈ 832 µM); against Enterococcus faecium [12], 500 µg/mL (≈ 3330 µM); against Streptococcus mutans [15] it was 500 µg/mL (≈ 3330 µM); against Streptococcus sanguinis [26] it was 125 µg/mL (≈ 832 µM); against Actinomyces viscosus [28] it was 500 µg/mL (≈ 3330 µM); against Porphyromonas gingivalis [29] it was 62.5 µg/mL (≈ 416 µM). For the same molecule, the MBC against Fusobacterium nucleatum [36] stood at 125 µg/mL (≈ 832 µM); against Enterococcus faecalis [37], 250 µg/mL (≈ 1660 µM); in data set [38] it was 500 µg/mL (≈ 3330 µM). Further, the inhibition result in the data set on Neutrophil [11], in the data set with Neutrophil [19], in the data set with Neutrophil [31] and in the data set on Streptococcus mutans [40] was “Active” throughout. Moreover, in the data set with Streptococcus mutans [17], the log reduction is recorded as 3. The PAE in the data set with Actinomyces viscosus [25] came to 4 h; in the data set on Actinomyces viscosus [27], 7 h; with Streptococcus mutans [34] it was 6 h; with Streptococcus mutans [35], 3.5 h. In the data set with Liver microsomes, the inhibition amounted to 15%.
